Experiments:
[1] = test system: cell free culture supernatant (fraction A) of Serratia marcescens, cyclic nucleotide phosphodiesterase activity; experiment: Activity assay, fraction A: cell free culture supernatant, HPLC detection of substrate and products; type: biochemical, Serratia marcescens strain DSM 30121; settings: 40 μl of 100 mM substrate in 400 μl, overnight at 30° C.
Procedure: (§1) The substrates used for enzyme activity assays are dissolved in phosphate buffer pH 7.0 to the required concentration.
One single colony is subsequently used to inoculate 25 ml of LB Broth contained in a 100-ml shake-flask. This culture is then incubated at 30° C. and shaken at 200 rpm (Infors HT Shaker, Infors AG, Bottmingen, Switzerland) for another 48 hrs.
(§2) After incubation, the whole volume of the culture is centrifuged at 9000 rpm for 20 minutes at ca. 4° C. (DuPont Instruments Sorvall® RC-5B Refrigerated Superspeed Centrifuge, Digitana AG, Horgen, Switzerland; rotor SS-34).
The supernatant (fraction A) is recuperated and 360 μl are placed in an Eppendorf tube. Fourty μl of a 100 mM solution of substrate are then added to the reaction mixture and incubated overnight at 30° C.
After 5 minutes of extraction at room temperature, the tubes are centrifugated at 14 000 rpm for 5 minutes (Bench Centrifuge Biofuge 15) and the supernatant transfered to HPLC tubes for analysis.
Blanks are made with the substrate solution being replaced by an equivalent volume of phosphate buffer pH 7.0.
The activity is qualitatively determined by observing the appearance of the substrate and product(s) of the activity assay as peaks on a HPLC profile. […] A peak showing on the assay's chromatogramme at the same or at a very close retention time as that of a standard, and moreover absent from the blank, is considered to be the same compound as the standard with a minimum risk of error.
The solvent system is composed of 10 mm phosphate buffer, pH 4.0 (solvent A) and Methanol (solvent B) and two different gradients are applied depending on whether natural or modified nucleotides are used for the assay:
The HPLC profiles obtained for the activity assays are compared with profiles of standards in order to identify the peaks.

[2] = test system: Intact cells (fraction B) of Serratia marcescens; experiment: Activity assay, fraction B: whole-cell suspension, HPLC detection of substrate and products; type: cell-based, Serratia marcescens strain DSM 30121; settings: 10 mM substrate solution, overnight at 30° C.
Procedure: as §1
Serratia marcescens strain DSM 30121 is grown for 48 hrs in Petri dishes containing Luria-Bertani [LB] Agar (1% Tryptone [Merck 07213]; 0.5% Yeast Extract [Fluka 70161]; 86 mM NaCl [Fluka 71382]; 50 mM Tris-HCl, pH 7.5 [Merck 8382]; 1.5% Bacto-Agar [Difco 0140-01]) at 30° C. (Memmert Incubator, Haska AG, Bern, Switzerland). One single colony is subsequently used to inoculate 25 ml of LB Broth contained in a 100-ml shake-flask. This culture is then incubated at 30° C. and shaken at 200 rpm (Infors HT Shaker, Infors AG, Bottmingen, Switzerland) for another 48 hrs.
as §2
The pellet is resuspended in 1 ml of distilled water and 40 μl of this whole-cell suspension (fraction B) are placed in an Eppendorf tube to which 360 μl of a 10 mM solution of the substrate are added. The incubation conditions are the same as for the supernatant fraction. […]
The activity is qualitatively determined by observing the appearance of the substrate and product(s) of the activity assay as peaks on a HPLC profile. […]

Structure (SMILES) | hydrolysis / degradation of substrate [1] | degradation of added substrate [2]
COCCO[C@@H]1[C@@H]2OP(=O)(O)OC[C@H]2O[C@H]1n1cnc2c(N)ncnc21 [2′MOE CAMP, 2′-O(2-Methoxyethyl)-adenosine 3′,5′-cyclic-phosphate] | about 50% | about 85%
Nc1ccn([C@@H]2O[C@@H]3COP(=O)(O)O[C@H]3[C@H]2O)c(=O)n1 [cCMP] | ca. 10% | 
O=c1[nH]cnc2c1ncn2[C@@H]1O[C@@H]2COP(=O)(O)O[C@H]2[C@H]1O [cIMP] | 85-89% | 

From patent US6340754B1, “Phosphorus containing cyclic nucleotides” (priority 1998, dated 2002)
